How the values were obtained:
Assay type in all cases: cell-based
[1] = test system: mixed bacterial inoculum (Pseudomonas aeruginosa, Enterobacter cloacae, Escherichia coli, Acinetobacter calcoaceticus); assay: Repeated inoculation of standard acrylic paint, streak plate rating
Summary of the method: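 Acrylic paint containing pyrithione, isothiazolinone and biocide enhancing agent, alone or mixed at varied concentrations, was challenged three times with an aqueous suspension of the four bacteria in equal proportions. Samples were streak plated 24, 48 and 72 h after inoculation and the plates rated for growth.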

[2] = test system: Escherichia coli; assay: MIC test, 96 well microtiter plate; conditions: single chemical
Summary of the method: (§1)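 Broth microdilution MIC in broth suited to each organism; actives serially diluted in sterile water, starting concentration set by efficacy range. Inoculum in 2× broth added per well to approximately 5×10^5 final. Amines also tested combined with a pyrithione and two isothiazolinones.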

[3] = test system: Staphylococcus aureus; assay: MIC test, 96 well microtiter plate; conditions: single chemical
Summary of the method: as §1

[4] = test system: Aureobasidium pullulans; assay: MIC test, 96 well microtiter plate; conditions: single chemical
Summary of the method: as §1

[5] = test system: Aspergillus brasiliensis; assay: MIC test, 96 well microtiter plate; conditions: single chemical
Summary of the method: as §1

[6] = test system: Candida albicans; assay: MIC test, 96 well microtiter plate; conditions: single chemical
Summary of the method: as §1

[7] = test system: Pseudomonas aeruginosa ATCC 15442; assay: Minimum Inhibitory Concentration (MIC) test, 96 well microtiter plate; conditions: single chemical
Protocol: Microorganisms: Pseudomonas aeruginosa ATCC 15442
MIC set up: A 96 well microtiter plate Minimum Inhibitory Concentration (MIC) test was run in broth suitable for the test organism. Serially diluted actives were prepared in sterilized water, and the start-up concentration varied depending on the efficacy range. Inocula prepared in 2× suitable broth was added into each well, and the final concentrations of bacteria were adjusted to approximately 5×10^5.

## Zinc Pyrithione [ZnPT]
[1]; Set Five, ZPT 50 ppm, 1st inoculation 24 h
  streak plate rating: 0
[1]; Set Five, ZPT 50 ppm, 1st inoculation 48 h
  streak plate rating: 0
[1]; Set Five, ZPT 50 ppm, 1st inoculation 72 h
  streak plate rating: 0
[1]; Set Five, ZPT 50 ppm, 2nd inoculation 24 h
  streak plate rating: 2 (6-15 viable microorganisms Lightly contaminated)
[1]; Set Five, ZPT 50 ppm, 2nd inoculation 48 h
  streak plate rating: 0
[1]; Set Five, ZPT 50 ppm, 2nd inoculation 72 h
  streak plate rating: 0
[1]; Set Five, ZPT 50 ppm, 3rd inoculation 24 h
  streak plate rating: 3 (16-30 viable microorganisms Moderately contaminated)
[1]; Set Five, ZPT 50 ppm, 3rd inoculation 48 h
  streak plate rating: 5 (>45 viable microorganisms Severely contaminated)
[1]; Set Five, ZPT 50 ppm, 3rd inoculation 72 h
  streak plate rating: 5 (>45 viable microorganisms Severely contaminated)
[1]; Set Four, ZPT 50 ppm, 1st inoculation 24 h
  streak plate rating: 0
[1]; Set Four, ZPT 50 ppm, 1st inoculation 48 h
  streak plate rating: 0
[1]; Set Four, ZPT 50 ppm, 1st inoculation 72 h
  streak plate rating: 0
[1]; Set Four, ZPT 50 ppm, 2nd inoculation 24 h
  streak plate rating: 2 (6-15 viable microorganisms Lightly contaminated)
[1]; Set Four, ZPT 50 ppm, 2nd inoculation 48 h
  streak plate rating: 0
[1]; Set Four, ZPT 50 ppm, 2nd inoculation 72 h
  streak plate rating: 0
[1]; Set Four, ZPT 50 ppm, 3rd inoculation 24 h
  streak plate rating: 3 (16-30 viable microorganisms Moderately contaminated)
[1]; Set Four, ZPT 50 ppm, 3rd inoculation 48 h
  streak plate rating: 5 (>45 viable microorganisms Severely contaminated)
[1]; Set Four, ZPT 50 ppm, 3rd inoculation 72 h
  streak plate rating: 5 (>45 viable microorganisms Severely contaminated)
[1]; Set One, ZPT 50 ppm, 1st inoculation 24 h
  streak plate rating: 3 (16-30 viable microorganisms Moderately contaminated)
[1]; Set One, ZPT 50 ppm, 1st inoculation 48 h
  streak plate rating: 3 (16-30 viable microorganisms Moderately contaminated)
[1]; Set One, ZPT 50 ppm, 2nd inoculation 24 h
  streak plate rating: 5 (>45 viable microorganisms Severely contaminated)
[1]; Set One, ZPT 50 ppm, 2nd inoculation 48 h
  streak plate rating: 5 (>45 viable microorganisms Severely contaminated)
[1]; Set One, ZPT 50 ppm, 2nd inoculation 72 h
  streak plate rating: 5 (>45 viable microorganisms Severely contaminated)
[1]; Set One, ZPT 50 ppm, 3rd inoculation 24 h
  streak plate rating: 5 (>45 viable microorganisms Severely contaminated)
[1]; Set One, ZPT 50 ppm, 3rd inoculation 48 h
  streak plate rating: 5 (>45 viable microorganisms Severely contaminated)
[1]; Set One, ZPT 50 ppm, 3rd inoculation 72 h
  streak plate rating: 5 (>45 viable microorganisms Severely contaminated)
[1]; Set Three, ZPT 50 ppm, 1st inoculation 24 h
  streak plate rating: 5 (>45 viable microorganisms Severely contaminated)
[1]; Set Three, ZPT 50 ppm, 1st inoculation 48 h
  streak plate rating: 3 (16-30 viable microorganisms Moderately contaminated)
[1]; Set Three, ZPT 50 ppm, 1st inoculation 72 h
  streak plate rating: 5 (>45 viable microorganisms Severely contaminated)
[1]; Set Three, ZPT 50 ppm, 2nd inoculation 24 h
  streak plate rating: 5 (>45 viable microorganisms Severely contaminated)
[1]; Set Three, ZPT 50 ppm, 2nd inoculation 48 h
  streak plate rating: 5 (>45 viable microorganisms Severely contaminated)
[1]; Set Three, ZPT 50 ppm, 2nd inoculation 72 h
  streak plate rating: 5 (>45 viable microorganisms Severely contaminated)
[1]; Set Three, ZPT 50 ppm, 3rd inoculation 24 h
  streak plate rating: 5 (>45 viable microorganisms Severely contaminated)
[1]; Set Three, ZPT 50 ppm, 3rd inoculation 48 h
  streak plate rating: 5 (>45 viable microorganisms Severely contaminated)
[1]; Set Three, ZPT 50 ppm, 3rd inoculation 72 h
  streak plate rating: 5 (>45 viable microorganisms Severely contaminated)
[1]; Set Two, ZPT 25 ppm, 1st inoculation 24 h
  streak plate rating: 5 (>45 viable microorganisms Severely contaminated)
[1]; Set Two, ZPT 25 ppm, 1st inoculation 48 h
  streak plate rating: 5 (>45 viable microorganisms Severely contaminated)
[1]; Set Two, ZPT 25 ppm, 1st inoculation 72 h
  streak plate rating: 5 (>45 viable microorganisms Severely contaminated)
[1]; Set Two, ZPT 25 ppm, 2nd inoculation 24 h
  streak plate rating: 5 (>45 viable microorganisms Severely contaminated)
[1]; Set Two, ZPT 25 ppm, 2nd inoculation 48 h
  streak plate rating: 5 (>45 viable microorganisms Severely contaminated)
[1]; Set Two, ZPT 25 ppm, 2nd inoculation 72 h
  streak plate rating: 5 (>45 viable microorganisms Severely contaminated)
[1]; Set Two, ZPT 25 ppm, 3rd inoculation 24 h
  streak plate rating: 5 (>45 viable microorganisms Severely contaminated)
[1]; Set Two, ZPT 25 ppm, 3rd inoculation 48 h
  streak plate rating: 5 (>45 viable microorganisms Severely contaminated)
[1]; Set Two, ZPT 25 ppm, 3rd inoculation 72 h
  streak plate rating: 5 (>45 viable microorganisms Severely contaminated)
[1]; Set Two, ZPT 50 ppm, 1st inoculation 24 h
  streak plate rating: 2 (6-15 viable microorganisms Lightly contaminated)
[1]; Set Two, ZPT 50 ppm, 1st inoculation 48 h
  streak plate rating: 3 (16-30 viable microorganisms Moderately contaminated)
[1]; Set Two, ZPT 50 ppm, 1st inoculation 72 h
  streak plate rating: 3 (16-30 viable microorganisms Moderately contaminated)
[1]; Set Two, ZPT 50 ppm, 2nd inoculation 24 h
  streak plate rating: 4 (31-45 viable microorganisms Heavily contaminated)
[1]; Set Two, ZPT 50 ppm, 2nd inoculation 48 h
  streak plate rating: 5 (>45 viable microorganisms Severely contaminated)
[1]; Set Two, ZPT 50 ppm, 2nd inoculation 72 h
  streak plate rating: 5 (>45 viable microorganisms Severely contaminated)
[1]; Set Two, ZPT 50 ppm, 3rd inoculation 24 h
  streak plate rating: 5 (>45 viable microorganisms Severely contaminated)
[1]; Set Two, ZPT 50 ppm, 3rd inoculation 48 h
  streak plate rating: 5 (>45 viable microorganisms Severely contaminated)
[1]; Set Two, ZPT 50 ppm, 3rd inoculation 72 h
  streak plate rating: 5 (>45 viable microorganisms Severely contaminated)
[2]
  Minimum Inhibitory Concentration: 3.9 ppm
[3]
  Minimum Inhibitory Concentration: 7.8 ppm
[4]
  Minimum Inhibitory Concentration: 3.9 ppm
[5]
  Minimum Inhibitory Concentration: 15.6 ppm
[6]
  Minimum Inhibitory Concentration: 7.8 ppm
[7]
  Minimum Inhibitory Concentration: 62.5 ppm
